The values below come from patent publication US5576174A, “Catalytic antibody with primary amine cofactor” (The Scripps Research Institute, priority 1995, dated 1996).

As usually defined, the Km is the substrate concentration at which the rate is half of its maximum.

For experiment [1], the system named is catalytic antibody 72D4 (anti-2, monoclonal antibody raised against quaternary piperidinium hapten 2). Description: Antibody 72D4 catalysed formation of α-aminonitrile 17 from amine 7, acetone and cyanide. It is filed as biochemical.
Experimental: Conditions: 50 mM bicine, 0.2M NaCN, pH 9.0, 20° C. […] The reaction was initiated by addition of a concentrated stock solution of either amine 7 or buffered NaCN (no difference was noted). As above, pairs of identical antibody solutions, with and without hapten 12 as inhibitor, were used for measuring the background and catalyzed reaction rates, respectively. 15 mL samples were quenched at 45 sec intervals by mixing with 15 mL 0.5N TFA in water, immediately frozen, and later analyzed by RP-HPLC (C-18 as above, 92.5% H2 O, 7.5% CH3 CN, tR (17)=7.8 minutes) against an internal standard (4-hydroxy-benzoic acid, tR =9.4 minutes). […] The background rate kuncat was derived from the inhibited samples (V vs. [S], 6 points, r^2 =1.0). KM and Vmax were obtained from the Lineweaver-Burk plot of 1/V vs. 1/[S] as above (50, 100, 200, 400, 800, 1600 mM 7, 6 points, r^2 =0.98).
For experiment [2] the test system is unchanged. Put plainly: Antibody 72D4 catalysed aldol addition of acetone to aldehyde 10a giving 11a, amine 7 as cofactor (RP-HPLC). It is filed as biochemical. Conditions: for Km: random bimolecular model for amine 7 and acetone; for effective molarity kcat/kapp (7): versus background reaction catalysed by 7 alone, aldehyde 10a at 200 mM. The procedure:
The aldol reaction of 10a and acetone to 11a with amine 7 as cofactor was followed by direct measurement of the formation of 11a by reverse-phase HPLC. The observed background reaction was first order in acetone (0.5% to 10% v/v) and aldehyde 10a (100-2000 mM), and was also first order in catalyst, either the amine cofactor 7 (50-1500 mM) as free base or hydroxide. The corresponding rate constants are kapp (7) (third order) and kapp (OH^-) (second order) for the apparent rate constant for each process at different pH, and k(7) and kOH^- are the third order rate constants for catalysis by amine 7 as free base and hydroxide, respectively (FIG. 1).
For acetone and aldehyde 10a, the background kuncat is the second order rate constant of their apparent bimolecular reaction, catalyzed by both hydroxide and amine 7 ([7]=0.2 mM and 0.4 mM, respectively).
Aldehydes 10a-10e were used as 25 mM stock solutions in 1:1 acetonitrile/water of the RP-HPLC purified samples. Cofactor 7 was used as 25 mM stock solution in pure water of the RP-HPLC purified trifluoroacetate salt. Antibody 72D4 was purified to homogeneity (SDS PAGE) by ion exchange and Protein G chromatography as described before,^4a at 8-12 mg/mL stock solutions in either bicine (50 mM, pH 8.0) or phosphate (50 mM, pH 7.4) with 100 mM NaCl.
The setup for the kinetics of FIG. 2 is representative: a stock solution (1.8 mL) containing the antibody ([…]) and acetone (1.11% v/v) in 50 mM bicine, 100 mM NaCl, pH 8.0 was separated into four portions of […]. To each was added 3.6 mL of a 25 mM stock solution of each of the aldehydes 10a to 10d. Each […] portion was further separated into four 90 mL portions and 10 mL of solutions of amine 7 in 50 mM bicine, 100 mM NaCl (1 mM, 2 mM, 4 mM, 8 mM) were added. Finally, 50 mL of each 100 mL sample was added to 0.5 mL of a 25 mM stock solution of hapten 12 in water. In each manipulation, the samples were vigorously shaken using a Vortex shaker to ensure homogeneity.

Take `C[N+]1(Cc2ccc(C(=O)NCCO)cc2)CCCCC1` [hapten 12, reference compound]: in experiment [1] (formation of α-aminonitrile 17), the “inhibition of catalysis by hapten 12” value is listed as “quantitatively inhibited”. Further, the “inhibition of catalytic activity by addition of hapten 12” value in experiment [2] (250 mM hapten 12 in the assay set-up) was “quantitatively inhibited”.
Regarding `CC(C)=O` [acetone], the “rate acceleration kcat/kuncat (acetone)” value in experiment [2] (apparent effective molarity, acetone varied, [7]=0.2 mM, table 1) stood at 123 M. Besides, the Michaelis constant (Km) in experiment [2] (pH 8.0, 200 mM fixed aldehyde 10a, read-out: KM (acetone)) is 19000 µM.
In the case of `CC(=O)Nc1ccc(CC(C)C=O)cc1` (racemic) [aldehyde 10a, 4-(3'-oxo-2'-methyl-prop-1'-yl)-acetanilide], in experiment [2] (apparent effective molarity, aldehyde 10a varied, [7]=0.4 mM, table 1), the “rate acceleration kcat/kuncat (aldehyde 10a)” value came to 102 M. Further, the kcat turned out to be 0.014 M⁻¹ s⁻¹ in experiment [2] (pH 8.0, antibody-acetone-amine complex reacting with aldehyde 10a (200 mM fixed)) and 0.053 M⁻¹ s⁻¹ in experiment [2] (pH 9.0, antibody-acetone-amine complex reacting with aldehyde 10a).
As to `NCc1ccc(C(=O)NCCO)cc1` [amine 7, N(hydroxyethyl)-4(aminomethyl)-benzamide], the kcat in experiment [1] (pH 9.0, 1% v/v acetone, 0.2M CN-, 20° C., amine 7 varied) is 0.012 s⁻¹. Moreover, the Km in experiment [1] (pH 9.0, 1% v/v acetone, 0.2M CN-, 20° C., amine 7 varied 50-1600 mM) was 130 µM; in experiment [2] (pH 8.0, 200 mM fixed aldehyde 10a, read-out: KM (7)), 45 µM; in experiment [2] (pH 9.0, read-out: KM (7)), 95 µM. Also, the entries for the “effective molarity kcat/kapp (7)” value in experiment [2] (pH 8.0) and in experiment [2] (pH 9) were 370 M and 440 M, respectively. Also, in experiment [2] (specific activation of the cofactor upon binding to the antibody, table 1), the “rate acceleration kcat/kuncat (cofactor 7)” value worked out at 950.
